Measurements as given in patent US8809002B2, “MUC1, caspase-8, and DED-containing proteins” (Dana-Farber Cancer Institute, Inc., priority 2008, dated 2014).
Each block holds one substance with its values, some of them ahead of it. Ends that are not written are not given here.

How the values were obtained:
MUC1-C = assay: Silencing of MUC1 expression in BC-1 cells, immunoblot; assay type: cell-based, human; settings: lentivirus, compared to control siRNA (FIG. 1A)
Excerpt: FIG. 1A: BC-1 cells were infected with lentiviruses expressing the CsiRNA, MUC1siRNA#1 or MUC1siRNA#2. Lysates from the indicated cell populations were immunoblotted with anti-MUC1-C and anti-β-actin antibodies as indicated to the right of the photographs. The molecular weights of each of the proteins (in kilodaltons (kDa)) are indicated to the left of each of the photographs.
The BLOCK-iT Target Screening System (Invitrogen, Carlsbad, Calif.) was used to generate two MUC1-specific siRNA molecules (Sequence #1: […] (SEQ ID NO:31); or Sequence #2: […] (SEQ ID NO:32)) and a control siRNA sequence ([…]; SEQ ID NO:33). The RNAi cassettes (nucleic acids encoding the siRNA molecules) were inserted into pLenti4/BLOCK-iT-DEST by LR recombination for the generation of lentiviral vectors. BC-1 cells were infected with the lentiviruses at a multiplicity of infection of 5 in the presence of 8 μg/ml polybrene. Cell clones were selected in methylcellulose semi-solid medium containing 200 μg/ml Zeocin and assayed for downregulation of MUC1 by immunoblotting. […]
Cells were lysed by sonication in the presence of 10 mM Tris-HCl, pH 7.5, 150 mM NaCl, 5 mM EDTA, 0.5% NP-40, 100 μg/ml phenylmethylsulphonyl fluoride (PMSF), and standard protease inhibitors. […] Reactivity was detected with horseradish peroxidase-conjugated secondary antibodies and chemiluminescence (GE Healthcare Biosciences, Piscataway, N.J.).

BC-1 cells = assay: FasL-induced apoptosis of BC-1 cells (sub-G1 DNA content); assay type: cell-based, human; settings: 50 ng/ml FasL, 24 hours (FIG. 1C, 1D)
Protocol: FIG. 1C: The indicated BC-1 cell populations were treated with 50 ng/ml FasL for 24 hours and then analyzed by fluorescence assisted cell sorting (FACS) to determine the sub-G1 DNA content in the cells.
FIG. 1D: The results obtained with the indicated BC-1 cell populations left untreated (open bars) or treated with FasL (solid bars) are expressed as the percentage apoptosis (mean+SD for three experiments).
Cells were fixed in 70% ethanol and incubated in PBS containing 50 μg/ml RNase and 2.5 μg/ml propidium iodide. DNA content was analyzed by flow cytometry. The percentage of cells with sub-G1 DNA was determined by the MODFIT LT Program (Verity Software, Topsham, Me.). Cells were also suspended in Annexin-V-FLOUS containing propidium iodide (Roche) and analyzed by flow cytometry.

caspase-8-p18 = biological target: T1, caspase-8-p18 (Homo sapiens, UniProt Q14790); assay: In vitro binding assay: GST-MUC1-CD(1-20) with His-caspase-8-p18 in the presence of MUC1-CD(1-20) peptide; settings: increasing amounts of peptide; GST pull-down, immunoblot (FIG. 9D, lower)
T1 construct: His; made in house; host or cells: E. coli BL21 DE3 is stated for the GST proteins; no host is printed for the His proteins
Protocol: (§1) FIG. 9D: GST or the indicated GST-MUC1-CD proteins were incubated with His-caspase-8-p18 (upper panel). The adsorbates were immunoblotted with anti-His and anti-GST antibodies. GST or GST-MUC1-CD(1-20) was incubated with His-caspase-8-p18 in the presence of increasing amounts of MUC1-CD(1-20) peptide (lower panel). The adsorbates were immunoblotted with anti-caspase-8 antibody as indicated to the right of the photographs. Input of the GST proteins was assessed by Coomassie blue staining.
(§2) Purified GST, GST-MUC1-CD(1-72), GST-MUC1-CD deletion mutants, GST-caspase-8, GST-caspase-8 deletion mutants, GST-FADD, GST-N-FADD and GST-C-FADD protein (36) were purified from E. coli (BL21 DE3) and immobilized on glutathione-agarose beads (Pierce). His-MUC1-CD(1-72) and His-caspase-8 deletion mutant proteins were purified on Ni-NTA beads (Qiagen, Valencia, Calif.). GST and GST fusion proteins bound to glutathione beads were incubated with purified soluble proteins for 2 hours at 4° C., and washed. Adsorbates bound to the beads were analyzed by solubilizing the protein/bead mixture in Laemli buffer following by sodium dodecyl sulfate polyacrylamide gel electrophoresis (SDS-PAGE) and immunoblotting. For competition studies, GST-caspase-8 DED protein bound to FADD was incubated with increasing amounts of MUC1-CD protein. Precipitated proteins were subjected to SDS-PAGE and immunoblot analysis. […]

caspase-8 = assay: In vitro binding assay (GST pull-down) of MUC1-CD proteins with caspase-8; set-up: species or system human; settings: immunoblot (FIG. 9A, 9D)
Protocol: FIG. 9A depicts the amino acid sequence for human MUC1-CD (SEQ ID NO:2). Phosphorylation sites and regions for β-catenin, IKKβ and IKKγ binding are indicated by brackets of arrows (upper panel). GST (glutathione-S-transferase) or GST-caspase-8 protein were incubated with purified His-MUC1-CD. The adsorbates and the input protein were immunoblotted with anti-His and anti-GST antibodies as indicated to the right of the photographs. The molecular weights of each of the proteins (in kilodaltons (kDa)) are indicated to the left of each of the photographs.
as §1, with “The adsorbates were immunoblotted with anti-caspase-8 antibody as indicated to the right of the photographs.” left out
Purified GST, GST-MUC1-CD(1-72), GST-MUC1-CD deletion mutants, GST-caspase-8, GST-caspase-8 deletion mutants, GST-FADD, GST-N-FADD and GST-C-FADD protein (36) were purified from E. coli (BL21 DE3) and immobilized on glutathione-agarose beads (Pierce). […] Adsorbates bound to the beads were analyzed by solubilizing the protein/bead mixture in Laemli buffer following by sodium dodecyl sulfate polyacrylamide gel electrophoresis (SDS-PAGE) and immunoblotting. […]

FADD [1] = biological target: T2, FADD (Homo sapiens, UniProt Q13158); assay: In vitro binding assay (GST pull-down) of GST-MUC1-CD proteins with purified FADD; settings: immunoblot (FIG. 12A)
T2 sequence (Q13158 1-208): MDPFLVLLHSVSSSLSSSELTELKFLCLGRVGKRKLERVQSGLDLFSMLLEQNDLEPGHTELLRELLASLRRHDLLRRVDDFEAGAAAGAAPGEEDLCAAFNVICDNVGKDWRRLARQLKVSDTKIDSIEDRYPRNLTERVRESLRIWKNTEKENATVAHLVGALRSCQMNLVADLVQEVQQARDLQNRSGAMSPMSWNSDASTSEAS
Protocol: FIG. 12A: GST and the indicated GST-MUC1-CD proteins were incubated with purified FADD. The adsorbates and input FADD were immunoblotted with anti-FADD antibody. The GST and GSTMUC1-CD proteins were stained with Coomassie blue.
Purified GST, GST-MUC1-CD(1-72), GST-MUC1-CD deletion mutants, GST-caspase-8, GST-caspase-8 deletion mutants, GST-FADD, GST-N-FADD and GST-C-FADD protein (36) were purified from E. coli (BL21 DE3) and immobilized on glutathione-agarose beads (Pierce). His-MUC1-CD(1-72) and His-caspase-8 deletion mutant proteins were purified on Ni-NTA beads (Qiagen, Valencia, Calif.). GST and GST fusion proteins bound to glutathione beads were incubated with purified soluble proteins for 2 hours at 4° C., and washed. Adsorbates bound to the beads were analyzed by solubilizing the protein/bead mixture in Laemli buffer following by sodium dodecyl sulfate polyacrylamide gel electrophoresis (SDS-PAGE) and immunoblotting. For competition studies, GST-caspase-8 DED protein bound to FADD was incubated with increasing amounts of MUC1-CD protein. Precipitated proteins were subjected to SDS-PAGE and immunoblot analysis. In certain studies, binding was performed in the presence of a synthetic peptide ([…]) (SEQ ID NO:3) derived from amino acids 1-20 from MUC1-CD (Molecular Biology Core Facility, Dana-Farber Cancer Institute).

FADD [2] = biological target: T2, FADD; assay: In vitro competition: GST-caspase-8(1-183) binding to FADD with increasing amounts of MUC1-CD; settings: increasing amounts of MUC1-CD protein (FIG. 12C)
Protocol: FIG. 12C: GST or GST-caspase-8(1-183) containing the DEDs was incubated with FADD in the absence or presence of increasing amounts of purified MUC1-CD. The adsorbates and input FADD were immunoblotted with anti-FADD antibody. Input of GST and GST-caspase-8(1-183) was determined by Coomassie blue staining. Input of MUC1-CD was determined by immunoblotting.
as §2

MUC1-CD = biological target: T3, MUC1-CD (Homo sapiens, UniProt P15941); assay: In vitro binding assay of His-caspase-8-p18 fragments with GST-MUC1-CD; settings: GST-MUC1-CD on glutathione beads (FIG. 9C)
T3 construct: Purified GST, GST-MUC1-CD(1-72), GST-MUC1-CD deletion mutants; made in house; host or cells: E. coli BL21 DE3
T3 sequence (P15941 1184-1255): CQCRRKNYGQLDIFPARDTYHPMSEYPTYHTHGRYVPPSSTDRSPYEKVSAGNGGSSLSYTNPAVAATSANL
Protocol: FIG. 9C is a schematic of his-tagged caspasc-8 p18 fragment depicting the A, B, C and AB subfragments (upper panel). The shaded region denotes position of the His tag. GST or GST-MUC1-CD was incubated with the indicated His-caspase-8 proteins. The adsorbates and input proteins ( 1/10th that used in the reactions) were immunoblotted with anti-His and anti-GST antibodies as indicated to the right of the photographs.
as §2

caspase-8, sequence (Q14790 184-384 limits assumed): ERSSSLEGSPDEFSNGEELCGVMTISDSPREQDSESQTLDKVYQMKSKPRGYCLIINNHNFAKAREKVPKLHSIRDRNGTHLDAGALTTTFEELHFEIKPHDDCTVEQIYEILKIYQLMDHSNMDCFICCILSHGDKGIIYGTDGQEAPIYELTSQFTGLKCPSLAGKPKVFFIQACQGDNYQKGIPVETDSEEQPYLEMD
T1 sequence (Q14790 184-384): as the sequence (Q14790 184-384 limits assumed) above

binding of MUC1-CD(1-20) to caspase-8-p18 in the presence of the peptide (caspase-8-p18): inhibited
Substance: CQCRRKNYGQLDIFPARDTY (listed as Homo sapiens) [MUC1-CD(1-20) peptide, synthetic peptide derived from amino acids 1-20 from MUC1-CD]

interaction between FADD and caspase-8 (1-183) (FADD [2]): progressive decrease
binding to caspase-8 (caspase-8): binds to caspase-8
binding to FADD (FADD [1]): interact directly
Substance: MUC1-CD: 72 amino acid cytoplasmic domain of full-length human MUC1, purified as His- or GST-tagged protein

binding to FADD (FADD [1]): found to bind to FADD
Substance: YEKVSAGNGGSSLSYTNPAVAATSANL (also: GST fusion; listed as Homo sapiens) [MUC1-CD(46-72), GST-MUC1-CD deletion mutant, amino acids 46-72 of MUC1-CD]

The remaining lines, values behind:

Substance: AAGGTACCATCAATGTCCACG (expressed or natural sequence) [MUC1siRNA#1]
MUC1-C expression (MUC1-C): stably downregulated
FasL-induced apoptosis (BC-1 cells): sensitized

Substance: AAGTTCAGTGCCCAGCTCTAC (expressed or natural sequence) [MUC1siRNA#2]
MUC1-C expression (MUC1-C): similar
FasL-induced apoptosis (BC-1 cells): confirmed

Substance: MUC1-CD(1-20): GST-MUC1-CD fragment containing just amino acids 1-20 of MUC1-CD (CQCRRKNYGQLDIFPARDTY; cysteine pairing not given here; also: GST fusion)
binding to caspase-8 (caspase-8): able to interact with caspase-8

Substance: MUC1-CD(1-45): GST-MUC1-CD deletion mutant, amino acids 1-45 of MUC1-CD (CQCRRKNYGQLDIFPARDTYHPMSEYPTYHTHGRYVPPSSTDRSP; cysteine pairing not given here; also: GST fusion)
binding to FADD (FADD [1]): not

Substance: caspase-8-p18-B: His-tagged fragment B of caspase-8-p18, amino acids 270-322 of human caspase-8 (KLHSIRDRNGTHLDAGALTTTFEELHFEIKPHHDCTVEQIYEILKIYQLMDHS; also: His tag; listed as Homo sapiens)
binding to MUC1-CD (MUC1-CD): binds
